Assay results published in patent US9243001B2, “Substituted benzene compounds” (Epizyme, Inc., priority 2013, dated 2016).

Molecular target: T1, wild-type EZH2 (PRC2 enzyme) (Homo sapiens, UniProt Q15910)
T1 construct: made in house; host or cells: Spodoptera frugiperda (sf9) cells, baculovirus
Test: PRC2 enzyme assay on peptide substrates (wild-type EZH2)
Assay type: biochemical
Conditions: wild-type PRC2 enzyme 4 nM, H3K27me0 peptide substrate, 3H-SAM Flashplate; read-out: WT EZH2 IC50
Description: General Materials. S-adenosylmethionine (SAM), S-adenosylhomocyteine (SAH), bicine, KCl, Tween20, dimethylsulfoxide (DMSO) and bovine skin gelatin (BSG) were purchased from Sigma-Aldrich at the highest level of purity possible. Dithiothreitol (DTT) was purchased from EMD Millipore. ^3H-SAM was purchased from American Radiolabeled Chemicals with a specific activity of 80 Ci/mmol. 384-well streptavidin Flashplates were purchased from PerkinElmer.
Substrates. Peptides representative of human histone H3 residues 21- 44 containing either an unmodified lysine 27 (H3K27me0) or dimethylated lysine 27 (H3K27me2) are synthesized with a C-terminal G(K-biotin) linker-affinity tag motif and a C-terminal amide cap by 21st Century Biochemicals. The peptides are high-performance liquid chromatography (HPLC) purified to greater than 95% purity and confirmed by liquid chromatography mass spectrometry (LC-MS). The sequences are listed below.
Recombinant PRC2 Enzymes. Human PRC2 enzymes were purified as 4-component enzyme complexes co-expressed in Spodoptera frugiperda (sf9) cells using a baculovirus expression system. The subunits expressed were wild-type EZH2 (NM_004456) or EZH2 Y641F, N, H, S or C mutants generated from the wild-type EZH2 construct, EED (NM_003797), Suz12 (NM_015355) and RbAp48 (NM_005610). The EED subunit contained an N-terminal FLAG tag that was used to purify the entire 4-component complex from sf9 cell lysates. The purity of the complexes met or exceeded 95% as determined by SDS-PAGE and Agilent Bioanalyzer analysis. Concentrations of enzyme stock concentrations (generally 0.3-1.0 mg/mL) was determined using a Bradford assay against a bovine serum albumin (BSA) standard.
General Procedure for PRC2 Enzyme Assays on Peptide Substrates. The assays were all performed in a buffer consisting of 20 mM bicine (pH=7.6), 0.5 mM DTT, 0.005% BSG and 0.002% Tween20, prepared on the day of use. Compounds in 100% DMSO (1 μL) were spotted into polypropylene 384-well V-bottom plates (Greiner) using a Platemate 2×3 outfitted with a 384-channel pipet head (Thermo). DMSO (1 μL) was added to columns 11, 12, 23, 24, rows A -H for the maximum signal control, and SAH, a known product and inhibitor of PRC2 (1 μL) was added to columns 11,12, 23, 24, rows I -P for the minimum signal control. A cocktail (40 μL) containing the wild-type PRC2 enzyme and H3K27me0 peptide or any of the Y641 mutant enzymes and H3K27me2 peptide was added by Multidrop Combi (Thermo). The compounds were allowed to incubate with PRC2 for 30 min at 25° C., then a cocktail (10 μL) containing a mixture of non-radioactive and ^3H-SAM was added to initiate the reaction (final volume=51 μL). In all cases, the final concentrations were as follows: wild-type or mutant PRC2 enzyme was 4 nM, SAH in the minimum signal control wells was 1 mM and the DMSO concentration was 1%. The assays were stopped by the addition of non-radioactive SAM (10 μL) to a final concentration of 600 μM, which dilutes the ^3H-SAM to a level where its incorporation into the peptide substrate is no longer detectable. 50 μL of the reaction in the 384-well polypropylene plate was then transferred to a 384-well Flashplate and the biotinylated peptides were allowed to bind to the streptavidin surface for at least 1 h before being washed three times with 0.1% Tween20 in a Biotek ELx405 plate washer. The plates were then read in a PerkinElmer TopCount platereader to measure the quantity of ^3H-labeled peptide bound to the Flashplate surface, measured as disintegrations per minute (dpm) or alternatively, referred to as counts per minute (cpm).
Where dpm=disintegrations per minute, cmpd=signal in assay well, and min and max are the respective minimum and maximum signal controls.
Where top and bottom are the normally allowed to float, but may be fixed at 100 or 0 respectively in a 3-parameter fit. The Hill Coefficient normally allowed to float but may also be fixed at 1 in a 3-parameter fit. […]

T1 sequence (Q15910 1-751 isoform Q15910-2): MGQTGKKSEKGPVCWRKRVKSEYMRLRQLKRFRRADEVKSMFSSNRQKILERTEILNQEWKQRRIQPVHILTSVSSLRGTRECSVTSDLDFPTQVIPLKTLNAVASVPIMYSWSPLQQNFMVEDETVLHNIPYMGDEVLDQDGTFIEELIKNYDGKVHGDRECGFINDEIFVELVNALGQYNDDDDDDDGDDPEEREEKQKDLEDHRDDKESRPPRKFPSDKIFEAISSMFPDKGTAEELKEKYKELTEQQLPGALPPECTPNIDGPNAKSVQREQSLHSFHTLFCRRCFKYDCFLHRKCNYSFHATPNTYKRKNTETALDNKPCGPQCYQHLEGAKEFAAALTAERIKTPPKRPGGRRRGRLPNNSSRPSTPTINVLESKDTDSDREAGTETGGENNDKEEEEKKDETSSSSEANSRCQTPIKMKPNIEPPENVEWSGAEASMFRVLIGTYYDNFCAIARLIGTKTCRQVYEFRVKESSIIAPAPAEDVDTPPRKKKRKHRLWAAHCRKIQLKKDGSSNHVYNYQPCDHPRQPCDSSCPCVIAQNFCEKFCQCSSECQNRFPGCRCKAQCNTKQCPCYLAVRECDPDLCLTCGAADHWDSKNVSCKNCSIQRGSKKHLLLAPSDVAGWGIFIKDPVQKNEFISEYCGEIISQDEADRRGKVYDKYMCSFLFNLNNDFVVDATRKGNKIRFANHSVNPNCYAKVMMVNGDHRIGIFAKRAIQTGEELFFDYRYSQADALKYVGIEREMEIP
T1 sequence (O75530 whole entry partner): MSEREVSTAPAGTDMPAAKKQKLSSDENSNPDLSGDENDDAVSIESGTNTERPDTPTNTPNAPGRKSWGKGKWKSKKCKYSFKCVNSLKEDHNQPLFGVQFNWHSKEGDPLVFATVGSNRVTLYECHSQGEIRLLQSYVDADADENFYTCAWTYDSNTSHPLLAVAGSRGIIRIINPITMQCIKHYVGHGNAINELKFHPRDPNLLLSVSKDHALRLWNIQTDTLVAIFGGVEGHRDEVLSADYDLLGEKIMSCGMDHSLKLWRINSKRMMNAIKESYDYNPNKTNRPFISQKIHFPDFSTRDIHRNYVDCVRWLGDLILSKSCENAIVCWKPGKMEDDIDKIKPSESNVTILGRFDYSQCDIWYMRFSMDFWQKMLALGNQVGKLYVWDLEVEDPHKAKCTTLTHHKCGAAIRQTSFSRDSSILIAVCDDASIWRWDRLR
T1 sequence (Q15022 whole entry partner): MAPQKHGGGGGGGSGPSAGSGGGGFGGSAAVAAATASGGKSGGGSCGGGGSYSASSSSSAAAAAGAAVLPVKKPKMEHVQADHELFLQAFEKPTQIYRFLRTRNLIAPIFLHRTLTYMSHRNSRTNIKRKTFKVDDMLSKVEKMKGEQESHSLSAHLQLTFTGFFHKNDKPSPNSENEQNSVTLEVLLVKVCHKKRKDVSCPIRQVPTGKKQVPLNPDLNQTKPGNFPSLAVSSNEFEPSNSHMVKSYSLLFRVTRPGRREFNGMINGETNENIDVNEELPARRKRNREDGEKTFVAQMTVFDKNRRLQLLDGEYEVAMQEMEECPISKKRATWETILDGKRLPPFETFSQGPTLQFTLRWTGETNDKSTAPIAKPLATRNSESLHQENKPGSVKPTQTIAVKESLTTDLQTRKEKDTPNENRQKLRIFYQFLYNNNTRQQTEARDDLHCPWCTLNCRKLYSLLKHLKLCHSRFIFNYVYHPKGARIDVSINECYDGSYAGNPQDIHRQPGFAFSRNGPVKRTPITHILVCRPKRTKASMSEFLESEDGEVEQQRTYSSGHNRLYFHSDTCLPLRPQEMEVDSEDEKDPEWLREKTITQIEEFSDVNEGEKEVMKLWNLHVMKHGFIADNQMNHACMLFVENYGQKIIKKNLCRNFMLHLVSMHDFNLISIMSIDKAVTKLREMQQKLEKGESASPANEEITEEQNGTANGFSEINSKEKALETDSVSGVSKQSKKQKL
T1 sequence (Q09028 whole entry partner): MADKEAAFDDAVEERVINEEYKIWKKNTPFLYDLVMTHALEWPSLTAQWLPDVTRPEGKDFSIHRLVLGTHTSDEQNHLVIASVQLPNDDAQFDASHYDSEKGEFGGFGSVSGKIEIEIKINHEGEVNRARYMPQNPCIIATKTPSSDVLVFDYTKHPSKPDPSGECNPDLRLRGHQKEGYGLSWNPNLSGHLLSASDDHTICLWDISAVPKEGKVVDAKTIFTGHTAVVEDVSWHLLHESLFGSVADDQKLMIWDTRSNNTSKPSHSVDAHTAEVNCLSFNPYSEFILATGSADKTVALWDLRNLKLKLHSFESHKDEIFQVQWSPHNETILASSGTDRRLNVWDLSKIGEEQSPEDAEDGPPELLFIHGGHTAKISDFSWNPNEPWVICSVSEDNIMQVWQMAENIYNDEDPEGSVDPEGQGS

Compound	IC50 [µM]
CCN(c1cc(Cl)cc(C(=O)NCc2cc(C)on2)c1C)C1CCOCC1 [Compound 29, 5-chloro-3-(ethyl(tetrahydro-2H-pyran-4-yl)amino)-2-methyl-N-((5-methylisoxazol-3-yl)methyl)benzamide]	> 50
CCN(c1cc(Cl)cc(C(=O)NCCc2nc3ccccc3[nH]2)c1C)[C@H]1CC[C@H](N(C)C)CC1 [Compound 21, N-(2-(1H-benzo[d]imidazol-2-yl)ethyl)-5-chloro-3-(((1r,4r)-4-(dimethylamino)cyclohexyl)(ethyl)amino)-2-methylbenzamide]	37.1
CCN(c1cc(Cl)cc(C(=O)NCCc2ncc[nH]2)c1C)[C@H]1CC[C@H](N(C)C)CC1 [Compound 10, N-(2-(1H-imidazol-2-yl)ethyl)-5-chloro-3-(((trans)-4-(dimethylamino)cyclohexyl)(ethyl)amino)-2-methylbenzamide]	2.03
CCN(c1cc(Cl)cc(C(=O)NCCc2nc3ccccc3s2)c1C)[C@H]1CC[C@H](N(C)C)CC1 [Compound 13, N-(2-(benzo[d]thiazol-2-yl)ethyl)-5-chloro-3-(((trans)-4-(dimethylamino)cyclohexyl)(ethyl)amino)-2-methylbenzamide]	37.7

More lines, now with the values ahead:

IC50 [µM]	Compound
23.7	CCN(c1cc(Cl)cc(C(=O)NCc2nccn2C)c1C)C1CCOCC1 [Compound 23, 5-chloro-3-(ethyl(tetrahydro-2H-pyran-4-yl)amino)-2-methyl-N-((1-methyl-1H-imidazol-2-yl)methyl)benzamide]
> 50	CCN(c1cc(Cl)cc(C(=O)NCc2cc(C)nn2C)c1C)C1CCOCC1 [Compound 31, 5-chloro-N-((1,3-dimethyl-1H-pyrazol-5-yl)methyl)-3-(ethyl(tetrahydro-2H-pyran-4-yl)amino)-2-methylbenzamide]
3.11	CCN(c1cc(Cl)cc(C(=O)NCc2nccn2C)c1C)[C@H]1CC[C@H](N(C)C)CC1 [Compound 16, 5-chloro-3-(((tans)-4-(dimethylamino)cyclohexyl)(ethyl)amino)-2-methyl-N-((1-methyl-1H-imidazol-2-yl)methyl)benzamide]
